Paper PMC5218480 (PLoS ONE, 2017)

Tested on: MV-4-11 cells
Test: Gene expression microarray analysis (Affymetrix PrimeView) and GSEA
Type: cell-based, human
Design: RFU PODN (11730768_x_at) / Fold change /veh PODN (11730768_x_at) / RFU LINC00158 (11744669_a_at) / Fold change /veh LINC00158 (11744669_a_at) / RFU DUSP10 (11751237_a_at) / Fold change /veh DUSP10 (11751237_a_at) / RFU ID3 (11757404_x_at) / Fold change /veh ID3 (11757404_x_at) / RFU PLEKHG5 (11737974_s_at) / Fold change /veh PLEKHG5 (11737974_s_at) / RFU LRRC4B (11730491_at) / Fold change /veh LRRC4B (11730491_at) / RFU GIMAP4 (11747438_a_at) / Fold change /veh GIMAP4 (11747438_a_at) / RFU KRT8 (11758183_x_at) / Fold change /veh KRT8 (11758183_x_at) / RFU CNN1 (11734310_a_at) / Fold change /veh CNN1 (11734310_a_at) / RFU VPS37D (11726825_at) / Fold change /veh VPS37D (11726825_at) / RFU C10orf10 (11716522_x_at) / Fold change /veh C10orf10 (11716522_x_at) / RFU KIR2DL2 /// KIR2DL4 /// KIR2DL5A /// KIR2DL5B /// KIR2DS1 /// KIR2DS2 /// KIR2DS3 /// KIR2DS4 /// KIR3DL3 /// KIR3DL3 /// KIR3DS1 (11738374_at) / Fold change /veh KIR2DL2 /// KIR2DL4 /// KIR2DL5A /// KIR2DL5B /// KIR2DS1 /// KIR2DS2 /// KIR2DS3 /// KIR2DS4 /// KIR3DL3 /// KIR3DL3 /// KIR3DS1 (11738374_at) / RFU C1QL1 (11718748_at) / Fold change /veh C1QL1 (11718748_at) / RFU TMPRSS4 (11747572_a_at) / Fold change /veh TMPRSS4 (11747572_a_at) / RFU HAMP (11756126_x_at) / Fold change /veh HAMP (11756126_x_at) / RFU RNFT2 (11725882_a_at) / Fold change /veh RNFT2 (11725882_a_at) / RFU NR4A2 (11747474_a_at) / Fold change /veh NR4A2 (11747474_a_at) / RFU ABCC12 (11746883_a_at) / Fold change /veh ABCC12 (11746883_a_at) / RFU TMEM136 (11760407_x_at) / Fold change /veh TMEM136 (11760407_x_at) / RFU CLDN22 /// WWC2 (11732394_at) / Fold change /veh CLDN22 /// WWC2 (11732394_at) / RFU HLA-DPB1 (11760878_x_at) / Fold change /veh HLA-DPB1 (11760878_x_at) / RFU SPINT1 (11716480_a_at) / Fold change /veh SPINT1 (11716480_a_at) / RFU GAP43 (11754022_s_at) / Fold change /veh GAP43 (11754022_s_at) / RFU A4GNT (11735810_at) / Fold change /veh A4GNT (11735810_at) / RFU PRB3 (11715151_x_at) / Fold change /veh PRB3 (11715151_x_at) / RFU TUBB4B (11761932_at) / Fold change /veh TUBB4B (11761932_at) / RFU CAPN14 (11732068_a_at) / Fold change /veh CAPN14 (11732068_a_at) / RFU TMCC2 (11721928_a_at) / Fold change /veh TMCC2 (11721928_a_at) / RFU IRGQ (11745062_a_at) / Fold change /veh IRGQ (11745062_a_at) / RFU FAM174B (11720279_a_at) / Fold change /veh FAM174B (11720279_a_at) / RFU TMPRSS4 (11748680_a_at) / Fold change /veh TMPRSS4 (11748680_a_at) / RFU FAM212B (11763350_a_at) / Fold change /veh FAM212B (11763350_a_at) / RFU PLEKHG5 (11743358_a_at) / Fold change /veh PLEKHG5 (11743358_a_at) / RFU ZSCAN30 (11745921_a_at) / Fold change /veh ZSCAN30 (11745921_a_at) / RFU CMKLR1 (11741424_a_at) / Fold change /veh CMKLR1 (11741424_a_at) / RFU LOC101060620 /// MAPK8IP1 (11723275_at) / Fold change /veh LOC101060620 /// MAPK8IP1 (11723275_at) / RFU SPTSSB (11747773_x_at) / Fold change /veh SPTSSB (11747773_x_at) / RFU PRSS12 (11739890_at) / Fold change /veh PRSS12 (11739890_at) / RFU BIN1 (11741810_x_at) / Fold change /veh BIN1 (11741810_x_at) / RFU WNT11 (11732464_a_at) / Fold change /veh WNT11 (11732464_a_at) / RFU C10orf10 (11716521_a_at) / Fold change /veh C10orf10 (11716521_a_at) / RFU C5orf56 (11738089_at) / Fold change /veh C5orf56 (11738089_at) / RFU CYB561 (11721691_x_at) / Fold change /veh CYB561 (11721691_x_at) / RFU ANKRD19P (11752326_a_at) / Fold change /veh ANKRD19P (11752326_a_at) / RFU OR2T12 /// OR2T33 /// OR2T8 (11738714_s_at) / Fold change /veh OR2T12 /// OR2T33 /// OR2T8 (11738714_s_at) / RFU VCAN (11748164_a_at) / Fold change /veh VCAN (11748164_a_at) / RFU JSRP1 (11732532_at) / Fold change /veh JSRP1 (11732532_at) / RFU KRTAP10-11 (11738290_x_at) / Fold change /veh KRTAP10-11 (11738290_x_at) / RFU MYO3A (11730013_a_at) / Fold change /veh MYO3A (11730013_a_at) / RFU EBF3 (11725865_a_at) / Fold change /veh EBF3 (11725865_a_at) / RFU CAMK2N1 (11719241_x_at) / Fold change /veh CAMK2N1 (11719241_x_at) / RFU C5orf56 (11738088_a_at) / Fold change /veh C5orf56 (11738088_a_at) / RFU OLFML3 (11715873_a_at) / Fold change /veh OLFML3 (11715873_a_at) / RFU LOC100653217 /// NTM (11731650_a_at) / Fold change /veh LOC100653217 /// NTM (11731650_a_at) / RFU MAPK11 (11762145_a_at) / Fold change /veh MAPK11 (11762145_a_at) / RFU FIZ1 (11724087_x_at) / Fold change /veh FIZ1 (11724087_x_at) / RFU OASL (11726364_x_at) / Fold change /veh OASL (11726364_x_at) / RFU SOX15 (11748057_x_at) / Fold change /veh SOX15 (11748057_x_at) / RFU CD79A (11719716_a_at) / Fold change /veh CD79A (11719716_a_at) / RFU HIST1H1D (11736915_at) / Fold change /veh HIST1H1D (11736915_at) / RFU CASKIN2 (11723855_a_at) / Fold change /veh CASKIN2 (11723855_a_at) / RFU LOC730098 (11760151_x_at) / Fold change /veh LOC730098 (11760151_x_at) / RFU OR4N2 (11742367_at) / Fold change /veh OR4N2 (11742367_at) / RFU PRRT2 (11749266_a_at) / Fold change /veh PRRT2 (11749266_a_at) / RFU SNX32 (11753110_a_at) / Fold change /veh SNX32 (11753110_a_at) / RFU CDHR5 (11726645_a_at) / Fold change /veh CDHR5 (11726645_a_at) / RFU RCAN1 (11760418_a_at) / Fold change /veh RCAN1 (11760418_a_at) / RFU FAM167A (11723789_a_at) / Fold change /veh FAM167A (11723789_a_at) / RFU FAM26E (11764081_at) / Fold change /veh FAM26E (11764081_at) / RFU ISYNA1 (11749810_s_at) / Fold change /veh ISYNA1 (11749810_s_at) / RFU ACY1 (11761880_at) / Fold change /veh ACY1 (11761880_at) / RFU 11764098_at / Fold change /veh 11764098_at / RFU SAMD14 (11745864_x_at) / Fold change /veh SAMD14 (11745864_x_at) / RFU NPB (11741838_a_at) / Fold change /veh NPB (11741838_a_at) / RFU TMPRSS6 (11731388_a_at) / Fold change /veh TMPRSS6 (11731388_a_at) / RFU KRTAP10-2 (11738614_at) / Fold change /veh KRTAP10-2 (11738614_at) / RFU ARHGAP8 /// PRR5-ARHGAP8 (11727945_x_at) / Fold change /veh ARHGAP8 /// PRR5-ARHGAP8 (11727945_x_at) / RFU KRTAP5-7 /// NADSYN1 (11734609_at) / Fold change /veh KRTAP5-7 /// NADSYN1 (11734609_at) / RFU RASL12 (11751679_a_at) / Fold change /veh RASL12 (11751679_a_at) / RFU CDKN2B (11736163_a_at) / Fold change /veh CDKN2B (11736163_a_at) / RFU PRF1 (11729649_at) / Fold change /veh PRF1 (11729649_at) / RFU, ZNF638 /// ZNF638-IT1 / Fold change vs veh, ZNF638 /// ZNF638-IT1 / RFU, PANK3 / Fold change vs veh, PANK3 / RFU, SH3YL1 / Fold change vs veh, SH3YL1 / RFU, ZEB2 / Fold change vs veh, ZEB2 / RFU, NRIP1 / Fold change vs veh, NRIP1 / RFU, PTTG1IP / Fold change vs veh, PTTG1IP / RFU, CAPN2 / Fold change vs veh, CAPN2 / RFU, MED14 / Fold change vs veh, MED14 / RFU, SNORA58 / Fold change vs veh, SNORA58 / RFU, C1orf63 / Fold change vs veh, C1orf63 / RFU, LRRFIP1 / Fold change vs veh, LRRFIP1 / RFU, NDUFAF7 / Fold change vs veh, NDUFAF7 / RFU, SLC12A2 / Fold change vs veh, SLC12A2 / RFU, IBTK / Fold change vs veh, IBTK / RFU, ESF1 / Fold change vs veh, ESF1 / Fold change vs veh, TMEM50B / RFU, TAOK1 / Fold change vs veh, TAOK1 / RFU, ACBD3 / Fold change vs veh, ACBD3 / RFU, TMA16 / Fold change vs veh, TMA16 / RFU, RWDD3 / Fold change vs veh, RWDD3 / RFU, BCAT1 / Fold change vs veh, BCAT1 / RFU, EDEM3 / Fold change vs veh, EDEM3 / RFU, TMEM33 / Fold change vs veh, TMEM33 / RFU, WDR75 / Fold change vs veh, WDR75 / RFU, AHCTF1 / Fold change vs veh, AHCTF1 / RFU, TFRC / Fold change vs veh, TFRC / RFU, ZDHHC17 / Fold change vs veh, ZDHHC17 / RFU, NOM1 / Fold change vs veh, NOM1 / RFU, ARL8B / Fold change vs veh, ARL8B / RFU, ZBTB11 / Fold change vs veh, ZBTB11 / RFU, TAMM41 / Fold change vs veh, TAMM41 / RFU, KIAA1704 /// LOC100996395 / Fold change vs veh, KIAA1704 /// LOC100996395 / RFU, ING1 / Fold change vs veh, ING1 / RFU, TRMT61B / Fold change vs veh, TRMT61B / RFU, FUBP3 / Fold change vs veh, FUBP3 / RFU, TP53 / Fold change vs veh, TP53 / RFU, TNKS2 / Fold change vs veh, TNKS2 / RFU, ZFP14 / Fold change vs veh, ZFP14 / RFU, ACTR2 / Fold change vs veh, ACTR2 / RFU, PPP3R1 / Fold change vs veh, PPP3R1 / RFU, PIK3R1 / Fold change vs veh, PIK3R1 / RFU, HNRNPA1 / Fold change vs veh, HNRNPA1 / RFU, RNF170 / Fold change vs veh, RNF170 / RFU, ZNF28 / Fold change vs veh, ZNF28 / RFU, RNGTT / Fold change vs veh, RNGTT / RFU, OGT / Fold change vs veh, OGT / RFU, BRD1 / Fold change vs veh, BRD1 / RFU, MARS / Fold change vs veh, MARS / RFU, ZNF655 / Fold change vs veh, ZNF655 / RFU, FAHD1 / Fold change vs veh, FAHD1 / RFU, BDP1 / Fold change vs veh, BDP1 / RFU, LRRCC1 / Fold change vs veh, LRRCC1 / RFU, ARID1A / Fold change vs veh, ARID1A / RFU, ZNF146 / Fold change vs veh, ZNF146 / RFU, ZNF330 / Fold change vs veh, ZNF330 / RFU, GPN3 / Fold change vs veh, GPN3 / RFU, C9orf123 / Fold change vs veh, C9orf123 / RFU, N4BP2L2 / Fold change vs veh, N4BP2L2 / RFU, ARFIP1 / Fold change vs veh, ARFIP1 / RFU, FAM179B / Fold change vs veh, FAM179B / RFU, BCL10 / Fold change vs veh, BCL10 / RFU, UHRF1BP1L / Fold change vs veh, UHRF1BP1L / RFU, BET1 / Fold change vs veh, BET1 / RFU, CNOT2 / Fold change vs veh, CNOT2 / RFU, ZNF268 / Fold change vs veh, ZNF268 / Fold change vs veh, ZNF507 / RFU, DGCR2 / Fold change vs veh, DGCR2 / RFU, WDSUB1 / Fold change vs veh, WDSUB1 / Fold change vs veh, HSP90B1 /// MIR3652 / RFU, ADSS / Fold change vs veh, ADSS / RFU, GK / Fold change vs veh, GK / RFU, ZNF148 / Fold change vs veh, ZNF148 / RFU, TAF9 / Fold change vs veh, TAF9 / RFU, SLC1A5 / Fold change vs veh, SLC1A5 / RFU, SLMO2 / Fold change vs veh, SLMO2 / RFU, ABCC4 / Fold change vs veh, ABCC4 / RFU, LOC101060439 /// RAP1B / Fold change vs veh, LOC101060439 /// RAP1B / RFU, RFX7 / Fold change vs veh, RFX7 / RFU, GTPBP10 / Fold change vs veh, GTPBP10 / RFU, CNEP1R1 / Fold change vs veh, CNEP1R1 / RFU, BIVM-ERCC5 /// ERCC5 / Fold change vs veh, BIVM-ERCC5 /// ERCC5 / RFU, ILF3 / Fold change vs veh, ILF3 / RFU 11762660_at / Fold change /veh 11762660_at / RFU VCAN (11757783_s_at) / Fold change /veh VCAN (11757783_s_at) / RFU DDX43 (11728927_at) / Fold change /veh DDX43 (11728927_at) / RFU KRT8 (11758188_x_at) / Fold change /veh KRT8 (11758188_x_at) / RFU NKD1 (11759106_at) / Fold change /veh NKD1 (11759106_at) / RFU SRD5A1 (11742802_a_at) / Fold change /veh SRD5A1 (11742802_a_at) / RFU TPSAB1 /// TPSB2 (11721975_s_at) / Fold change /veh TPSAB1 /// TPSB2 (11721975_s_at) / RFU GSTM3 (11746129_a_at) / Fold change /veh GSTM3 (11746129_a_at) / RFU IL23R (11737362_x_at) / Fold change /veh IL23R (11737362_x_at) / RFU TMEM51 (11727254_a_at) / Fold change /veh TMEM51 (11727254_a_at) / RFU PIWIL2 (11732686_x_at) / Fold change /veh PIWIL2 (11732686_x_at) / RFU ORM1 (11744905_x_at) / Fold change /veh ORM1 (11744905_x_at) / RFU CCDC152 (11743942_at) / Fold change /veh CCDC152 (11743942_at) / RFU ECM1 (11717891_a_at) / Fold change /veh ECM1 (11717891_a_at) / RFU IL23R (11748794_a_at) / Fold change /veh IL23R (11748794_a_at) / RFU TNFAIP8L3 (11732012_x_at) / Fold change /veh TNFAIP8L3 (11732012_x_at) / RFU MBOAT4 (11741988_at) / Fold change /veh MBOAT4 (11741988_at) / RFU 11764193_at / Fold change /veh 11764193_at / RFU TMEM53 (11763286_at) / Fold change /veh TMEM53 (11763286_at) / RFU MAGEB2 (11727129_at) / Fold change /veh MAGEB2 (11727129_at) / RFU TMEM200A (11744735_a_at) / Fold change /veh TMEM200A (11744735_a_at) / RFU CCDC152 (11751479_a_at) / Fold change /veh CCDC152 (11751479_a_at) / RFU FAM211A (11726209_a_at) / Fold change /veh FAM211A (11726209_a_at) / RFU RGS16 (11746705_a_at) / Fold change /veh RGS16 (11746705_a_at) / RFU VCAN (11755009_s_at) / Fold change /veh VCAN (11755009_s_at) / RFU RHOB (11743442_s_at) / Fold change /veh RHOB (11743442_s_at) / RFU RGS16 (11720943_a_at) / Fold change /veh RGS16 (11720943_a_at) / RFU RGS16 (11720944_at) / Fold change /veh RGS16 (11720944_at) / RFU, VPS4B / Fold change vs veh, VPS4B / RFU, CREB1 / Fold change vs veh, CREB1 / RFU, DNAJC13 / Fold change vs veh, DNAJC13 / RFU, GNAQ / Fold change vs veh, GNAQ / RFU, CDK5R1 / Fold change vs veh, CDK5R1 / RFU, ZRANB3 / Fold change vs veh, ZRANB3 / RFU, CUL4A / Fold change vs veh, CUL4A / RFU, CCNY / Fold change vs veh, CCNY / RFU, UFL1 / Fold change vs veh, UFL1 / RFU, COG3 / Fold change vs veh, COG3 / RFU, DIAPH2 / Fold change vs veh, DIAPH2 / RFU, SKA2 / Fold change vs veh, SKA2 / RFU, AFF3 / Fold change vs veh, AFF3 / RFU, LMF1 / Fold change vs veh, LMF1 / RFU, IPO11 / Fold change vs veh, IPO11 / RFU, DFFB / Fold change vs veh, DFFB / RFU, FOXP1 / Fold change vs veh, FOXP1 / RFU, CARD8 / Fold change vs veh, CARD8 / RFU, STRN3 / Fold change vs veh, STRN3 / RFU, ADK / Fold change vs veh, ADK / RFU, RASSF2 / Fold change vs veh, RASSF2 / RFU, WIPF1 / Fold change vs veh, WIPF1 / RFU, LARP1B / Fold change vs veh, LARP1B / RFU, RASA1 / Fold change vs veh, RASA1 / RFU, RB1 / Fold change vs veh, RB1 / RFU, PPFIA1 / Fold change vs veh, PPFIA1 / RFU, MAT2A / Fold change vs veh, MAT2A / RFU, CCT5 / Fold change vs veh, CCT5 / RFU, WDR92 / Fold change vs veh, WDR92 / RFU, CUX1 / Fold change vs veh, CUX1 / RFU, TTC7A / Fold change vs veh, TTC7A / RFU, TMEM135 / Fold change vs veh, TMEM135 / RFU, DEPTOR / Fold change vs veh, DEPTOR / RFU, CPM / Fold change vs veh, CPM / RFU, DNAJB6 / Fold change vs veh, DNAJB6 / RFU, CACNA2D3 / Fold change vs veh, CACNA2D3 / RFU, DTX4 / Fold change vs veh, DTX4 / RFU, TFCP2 / Fold change vs veh, TFCP2 / RFU, GMCL1 /// GMCL1P1 / Fold change vs veh, GMCL1 /// GMCL1P1 / RFU, AEBP2 / Fold change vs veh, AEBP2 / RFU, SNHG1 /// SNORD22 /// SNORD25 /// SNORD26 /// SNORD27 /// SNORD28 /// SNORD29 /// SNORD31 / Fold change vs veh, SNHG1 /// SNORD22 /// SNORD25 /// SNORD26 /// SNORD27 /// SNORD28 /// SNORD29 /// SNORD31 / Fold change (Aza/veh), C12orf56 (ProbeSet 11735607_a_at) / Fold change (ACY-1035/veh), C12orf56 (ProbeSet 11735607_a_at) / Fold change (Aza/veh), FGFR1OP (ProbeSet 11751329_s_at) / Fold change (ACY-1035/veh), FGFR1OP (ProbeSet 11751329_s_at) / Fold change (Aza/veh), VPS36 (ProbeSet 11739960_a_at) / Fold change (ACY-1035/veh), VPS36 (ProbeSet 11739960_a_at) / RFU SYPL1 (11715823_x_at) / Fold change /veh SYPL1 (11715823_x_at) / RFU IGFBP7 (11715501_s_at) / Fold change /veh IGFBP7 (11715501_s_at) / RFU REEP3 (11722064_at) / Fold change /veh REEP3 (11722064_at) / RFU IGLL1 (11728026_x_at) / Fold change /veh IGLL1 (11728026_x_at): dose or concentration left out as unconfirmed
Conditions: ProbeSet 11763895_x_at; LIST B

Nc1ncn([C@@H]2O[C@H](CO)[C@@H](O)[C@H]2O)c(=O)n1 [azacitidine]
Fold change vs veh, SNORA58: 1.03
